Measured values as given in patent publication US20130109734A1 (Metabolex, Inc., priority 2010, published 2013).

Target: T1, human GPR120 (Homo sapiens, UniProt Q5NUL3)
T1 construct: host or cells: HEK293 cells co-expressing Gqi5
T1 sequence (Q5NUL3 1-361): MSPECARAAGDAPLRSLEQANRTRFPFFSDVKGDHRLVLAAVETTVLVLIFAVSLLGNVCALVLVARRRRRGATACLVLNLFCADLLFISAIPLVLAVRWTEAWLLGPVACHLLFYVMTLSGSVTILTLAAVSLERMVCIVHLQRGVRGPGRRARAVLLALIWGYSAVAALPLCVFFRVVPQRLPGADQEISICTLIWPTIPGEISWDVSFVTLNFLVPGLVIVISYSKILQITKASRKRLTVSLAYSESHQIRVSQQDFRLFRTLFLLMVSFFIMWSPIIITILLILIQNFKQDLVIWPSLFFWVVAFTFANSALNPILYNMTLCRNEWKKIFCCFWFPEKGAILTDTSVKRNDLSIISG
Assay: Intracellular Ca2+ assay in human GPR120 stable cell line (HEK293 co-expressing Gqi5), Flexstation
Format: cell-based
Conditions: % activity at 5 μM compared to the maximal activity of GW9508 at 6.7 μM (=100%); human GPR120 cells, Ca2+ fluorescence
Procedure, shortened: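 HEK293 cells stably co-expressing Gqi5 and Flag-tagged human GPR120, loaded with Calcium 4 dye in HBSS/HEPES pH 7.4 at 37 °C; compounds at eight concentrations, 0.00001–20 μM, fluorescence (485/525 nm) read 90 s. EC50 from Max−Min change; percent activity relative to GW9508 maximum at 6.7 μM.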

| SMILES | % Activity (GW9508 Reference Compound) |
| --- | --- |
| CC1(C)Cc2c(COc3ccc4c(c3)CC[C@@H]4CC(=O)O)cc(F)cc2O1 [Example 188, (R)-2-(5-((6-fluoro-2,2-dimethyl-2,3-dihydrobenzofuran-4-yl)methoxy)-2,3-dihydro-1H-inden-1-yl)acetic acid] | 104.04% |
| COc1cc(OCc2cc(Cl)cc3c2OC2(CCCC2)C3)ccc1CCC(=O)O [Example 194, 3-(4-((5-chloro-3H-spiro[benzofuran-2,1′-cyclopentane]-7-yl)methoxy)-2-methoxyphenyl)propanoic acid] | 148.21% |
| CC1(C)Cc2cc(F)cc(COc3cc(Cl)c(CCC(=O)O)c(Cl)c3)c2O1 [Example 197, 3-(2,6-dichloro-4-((5-fluoro-2,2-dimethyl-2,3-dihydrobenzofuran-7-yl)methoxy)phenyl)propanoic acid] | 151.44% |
| Cc1cc(OCc2cc(F)cc3c2OC(C)(C)C3)c(C)cc1CCC(=O)O [Example 206, 3-(4-((5-fluoro-2,2-dimethyl-2,3-dihydrobenzofuran-7-yl)methoxy)-2,5-dimethylphenyl)propanoic acid] | 111.45% |
| Cc1c(CCC(=O)O)ccc(OCc2cc(F)cc3c2OC(C)(C)C3)c1C [Example 208, 3-(4-((5-fluoro-2,2-dimethyl-2,3-dihydrobenzofuran-7-yl)methoxy)-2,3-dimethylphenyl)propanoic acid] | 147.47% |
| Cc1c(CCC(=O)O)ccc(OCc2cc(Cl)cc3c2OC(C)(C)C3)c1C [Example 209, 3-(4-((5-chloro-2,2-dimethyl-2,3-dihydrobenzofuran-7-yl)methoxy)-2,3-dimethylphenyl)propanoic acid] | 142.22% |
| Cc1cc(OCc2cc(F)cc3c2OC(C)(C)C3)c(F)cc1CCC(=O)O [Example 214, 3-(5-fluoro-4-((5-fluoro-2,2-dimethyl-2,3-dihydrobenzofuran-7-yl)methoxy)-2-methylphenyl)propanoic acid] | 143.21% |
| CCc1c(CCC(=O)O)ccc(OCc2cc(F)cc3c2OC(C)(C)C3)c1F [Example 216, 3-(2-ethyl-3-fluoro-4-((5-fluoro-2,2-dimethyl-2,3-dihydrobenzofuran-7-yl)methoxy)phenyl)propanoic acid] | 144.23% |
| CC1(C)Cc2cc(F)cc(COc3ccc(CCC(=O)O)c4c3CCCC4)c2O1 [Example 218, 3-(4-((5-fluoro-2,2-dimethyl-2,3-dihydrobenzofuran-7-yl)methoxy)-5,6,7,8-tetrahydronaphthalen-1-yl)propanoic acid] | 114.48% |
| CCc1cc(OCc2cc(F)cc3c2OC(C)(C)C3)c(F)cc1CCC(=O)O [Example 220, 3-(2-ethyl-5-fluoro-4-((5-fluoro-2,2-dimethyl-2,3-dihydrobenzofuran-7-yl)methoxy)phenyl)propanoic acid] | 115.86% |
| [2H]C([2H])(Oc1ccc(CCC(=O)O)c(CC)c1F)c1cc(F)cc2c1OC(C)(C)C2 [Example 228, 3-(4-(dideuterio(5-fluoro-2,2-dimethyl-2,3-dihydrobenzofuran-7-yl)methoxy)-3-fluoro-2-ethylphenyl)propanoic acid] | 119.11% |
| [2H]C([2H])(Oc1ccc(CC(C)C(=O)O)cc1F)c1cc(F)cc2c1OC(C)(C)C2 (stereo not shown) [Example 230, 3-(4-(dideuterio(5-fluoro-2,2-dimethyl-2,3-dihydrobenzofuran-7-yl)methoxy)-3-fluorophenyl)-2-methylpropanoic acid] | 86.25% |
| [2H]C([2H])(Oc1ccc(CC(C)C(=O)O)cc1C(F)(F)F)c1cc(F)cc2c1OC(C)(C)C2 (stereo not shown) [Example 231, 3-(4-(dideuterio(5-fluoro-2,2-dimethyl-2,3-dihydrobenzofuran-7-yl)methoxy)-3-(trifluoromethyl)phenyl)-2-methylpropanoic acid] | 101.01% |
| [2H]C([2H])(C(=O)O)C([2H])([2H])c1ccc(OCc2cc(Cl)cc3c2OC(C)(C)C3)c(F)c1 [Example 241, 3-(4-((5-chloro-2,2-dimethyl-2,3-dihydrobenzofuran-7-yl)methoxy)-3-fluorophenyl)-2,2,3,3-tetradeuteriopropanoic acid] | 159.62% |
| [2H]C([2H])(C(=O)O)C([2H])([2H])c1ccc(OCc2cc(F)cc3c2OC(C)(C)C3)c(F)c1CC [Example 243, 3-(2-ethyl-3-fluoro-4-((5-fluoro-2,2-dimethyl-2,3-dihydrobenzofuran-7-yl)methoxy)phenyl)-2,2,3,3-tetradeuteriopropanoic acid] | 155.23% |
| CC1(C)Cc2cc(Cl)cc(COc3ccccc3CCC(=O)O)c2O1 [Example 250, 3-(2-((5-chloro-2,2-dimethyl-2,3-dihydrobenzofuran-7-yl)methoxy)phenyl)propanoic acid] | 10.23% |
| CC(Cc1cccc(OCc2cc(Cl)cc3c2OC(C)(C)C3)c1)C(=O)O (stereo not shown) [Example 251, 3-(3-((5-chloro-2,2-dimethyl-2,3-dihydrobenzofuran-7-yl)methoxy)phenyl)-2-methylpropanoic acid] | 61.14% |
| Cc1cc(CCC(=O)O)c(C)c(C)c1OCc1cc(F)cc2c1OC(C)(C)C2 [Example 254, 3-(4-((5-fluoro-2,2-dimethyl-2,3-dihydrobenzofuran-7-yl)methoxy)-2,3,5-trimethylphenyl) propanoic acid] | 146.14% |
| CC(C)Oc1ccc(Cl)cc1COc1cc2c(cc1F)C(CC(=O)O)CC2 (stereo not shown) [Example 257, 2-(5-((5-chloro-2-isopropoxybenzyl)oxy)-6-fluoro-2,3-dihydro-1H-inden-1-yl)acetic acid] | 124.62% |
| CC(C)Oc1ccc(Cl)cc1COc1ccc2c(c1)CCC2CC(=O)O (stereo not shown) [Example 258, 2-(5-((5-chloro-2-isopropoxybenzyl)oxy)-2,3-dihydro-1H-inden-1-yl)acetic acid] | 139.95% |
| CC(C)Oc1ncccc1COc1ccc2c(c1)CCC2CC(=O)O (stereo not shown) [Example 259, 2-(5-((2-isopropoxypyridin-3-yl)methoxy)-2,3-dihydro-1H-inden-1-yl)acetic acid] | 118.5% |
| CC(Cc1cc(F)c(OCc2cccc3cn[nH]c23)c(F)c1)C(=O)O (stereo not shown) [Example 260, 3-(4-((1H-indazol-7-yl)methoxy)-3,5-difluorophenyl)-2-methylpropanoic acid] | 16.67% |
| Cc1nc2cccc(COc3c(F)cc(CC(C)C(=O)O)cc3F)c2o1 (stereo not shown) [Example 261, 3-(3,5-difluoro-4-((2-methylbenzo[d]oxazol-7-yl)methoxy)phenyl)-2-methylpropanoic acid] | 108.78% |
| CC1(C)Cc2cc(F)cc(COc3ccc4c(CC(=O)O)coc4c3)c2O1 [Example 262, 2-(6-((5-fluoro-2,2-dimethyl-2,3-dihydrobenzofuran-7-yl)methoxy)benzofuran-3-yl)acetic acid] | 137.39% |
| CC1(C)Cc2cc(F)cc(COc3ccc4c(CC(=O)O)cc(=O)oc4c3)c2O1 [Example 263, 2-(7-((5-fluoro-2,2-dimethyl-2,3-dihydrobenzofuran-7-yl)methoxy)-2-oxo-2H-chromen-4-yl)acetic acid] | 5.98% |
| CC(Cc1ccc(OCc2cc(F)cc3c2OC(C)(C)C3)cc1)C(=O)NO (stereo not shown) [Example 264, 3-(4-((5-fluoro-2,2-dimethyl-2,3-dihydrobenzofuran-7-yl)methoxy)phenyl)-N-hydroxy-2-methylpropanamide] | 110.24% |
| CC(C)C(CC(=O)O)c1ccc(OCc2cc(Cl)cc3c2OC(C)(C)C3)cc1 (stereo not shown) [Example 266, 3-(4-((5-chloro-2,2-dimethyl-2,3-dihydrobenzofuran-7-yl)methoxy)phenyl)-4-methylpentanoic acid] | 42.73% |
| Cc1c(CCC(=O)O)ccc(OCc2cc(Cl)cc3c2CC(C)(C)O3)c1C [Example 267, 3-(4-((6-chloro-2,2-dimethyl-2,3-dihydrobenzofuran-4-yl)methoxy)-2,3-dimethylphenyl)propanoic acid] | 140.82% |
